Experimental data reported in PMC6151488, “Structure, Absolute Configuration, and Antiproliferative Activity of Abietane and Icetexane Diterpenoids from Salvia ballotiflora” (Molecules : A Journal of Synthetic Chemistry and Natural …, 2017).
Several values for one entry are separate records, joined by “and”; a condition that tells them apart may be missing. Equal entries are not always repeated. Where two headings read alike, the source gives them in different places.

Experiments:
HeLa cells = test system: HeLa cells; set-up: method as in doi:10.1016/j.bjp.2017.01.007; conditions: similar activity when compared to cisplatin; cited from earlier work
[1] = test system: MCF-7 (human mammary adenocarcinoma); assay: Sulforhodamine B (SRB) cytotoxicity assay, MCF-7; assay type: cell-based; conditions: for IC50: SRB assay, 48 h exposure, mean ± SD, read-out: IC50 antiproliferative activity, MCF-7
Excerpt: (§1) The natural products were screened in vitro against the following human cancer cell lines: human mammary adenocarcinoma (MCF-7), human chronic myelogenous leukemia (K562), human glioblastoma (U251), human lung adenocarcinoma (SKLU-1), human colon cancer (HCT-15), human prostate cancer (PC-3), healthy gingival human fibroblasts (FGH), and normal monkey kidney cell lines, which were supplied by the National Cancer Institute (NCI, USA) and American Type Culture Collection (ATTC). The human tumor cytotoxicity was determined using the protein-binding dye sulforhodamine B (SRB) in a microculture assay to measure cell growth, as described in the protocol established by the NCI [30]. The cell lines were cultured in RPMI-1640 medium supplemented with 10% fetal bovine serum, 2 mM L-glutamine, 10,000 units/mL penicillin G sodium, 10,000 μg/mL streptomycin sulfate, and 25 μg/mL amphotericin B (Gibco), and 1% non-essential amino acids (Gibco). They were maintained at 37 °C in a humidified atmosphere with 5% CO2. The viability of the cells used in the experiments exceeded 95%, as determined with trypan blue.
(§2) Cytotoxicity after treatment of the tumors cells and normal cells with the test compounds were determined using the protein-binding dye sulforhodamine B (SRB) in a microculture assay to measure cell growth. The cells were removed from the tissue culture flasks by treatment with trypsin, and diluted with fresh media. Of these cell suspensions, 100 μL containing 5000–10,000 cells per well were pipetted into 96-well microtiter plates (Costar) and the material was incubated at 37 °C for 24 h in a 5% CO2 atmosphere. Subsequently, 100 μL of a solution of the compound obtained by diluting the stocks were added to each well. The cultures were exposed to the compound for 48 h. After the incubation period, cells were fixed to the plastic substratum by the addition of 50 μL of cold 50% aqueous trichloroacetic acid. The plates were incubated at 4 °C for 1 h, washed with tap water, and air-dried. The trichloroacetic-acid-fixed cells were stained by the addition of 0.4% SRB. The free SRB solution was then removed by washing with 1% aqueous acetic-acid. The plates were air-dried, and the bound dye was dissolved by the addition of 10 mM unbuffered Tris base (100 μL). The plates were placed on a shaker for 10 min, and the absorption was determined at 515 nm using an ELISA plate reader (Bio-Tex Instruments).

[2] = test system: K562 (human chronic myelogenous leukemia); assay: Sulforhodamine B (SRB) cytotoxicity assay, K562; assay type: cell-based; conditions: for inhibition at 1 µM / IC50 / inhibition at 50 µM: Homo sapiens, K562; for inhibition at 1 µM: primary screening at 1.0 μM; for inhibition at 1 µM / inhibition at 50 µM / Antiproliferative activity (%), K562: mean n = 2; for inhibition at 1 µM / inhibition at 50 µM: read-out: Antiproliferative activity (%), K562; for IC50: SRB assay, 48 h exposure, mean ± SD, read-out: IC50 antiproliferative activity, K562; for inhibition at 50 µM / Antiproliferative activity (%), K562: primary screening at 50.0 μM, NC = No cytotoxic
Excerpt: as §1, §2

[3] = test system: COS-7 normal monkey kidney; assay: Sulforhodamine B (SRB) cytotoxicity assay, COS-7 normal cell line; assay type: cell-based; conditions: Primates, mean ± SD
Excerpt: as §1
as §2, with “The plates were incubated at 4 °C for 1 h, washed with tap water, and air-dried. The trichloroacetic-acid-fixed cells were stained by the addition of 0.4% SRB. The free SRB solution was then removed by washing with 1% aqueous acetic-acid. The plates were air-dried, and the bound dye was dissolved by the addition of 10 mM unbuffered Tris base (100 μL).” left out

[4] = Scavenging activity on free radical DPPH; conditions: at 100 μM; 30 min, 37 °C
Description: Free radical scavenging activity was measured using an adapted method of Mellors and Tappel. The test was carried out in 96-well microplates. A 50-μL aliquot of the solution of the test compound was mixed with 150 μL of an ethanol solution of DPPH (final concentration 100 μM). The mixture was incubated at 37 °C for 30 min, and the absorbance was then measured at 515 nm using a BioTek microplate reader SYNERGY HT. The percent inhibition was determined by comparison with a 100-μM DPPH ethanol blank solution.

[5] = test system: PC-3 (human prostate cancer); assay: Sulforhodamine B (SRB) cytotoxicity assay, PC-3; assay type: cell-based; conditions: for inhibition at 1 µM: primary screening at 1.0 μM, mean n = 2, read-out: Antiproliferative activity (%), PC-3; for inhibition at 50 µM: primary screening at 50.0 μM, mean n = 2, NC = No cytotoxic, read-out: Antiproliferative activity (%), PC-3
Excerpt: as §1, §2

[6] = test system: SKLU-1 (human lung adenocarcinoma); assay: Sulforhodamine B (SRB) cytotoxicity assay, SKLU-1; assay type: cell-based; conditions: for IC50: SRB assay, 48 h exposure, mean ± SD, read-out: IC50 antiproliferative activity, SKLU-1; for inhibition at 1 µM / inhibition at 50 µM: SK-LU-1, read-out: Antiproliferative activity (%), SKLU-1; for inhibition at 1 µM / Antiproliferative activity (%), SKLU-1: primary screening at 1.0 μM; for inhibition at 1 µM / Antiproliferative activity (%), SKLU-1 / inhibition at 50 µM: mean n = 2; for SI (selectivity index), SKLU-1: quotient of IC50 of COS-7 / IC50 of SKLU-1; for inhibition at 50 µM: primary screening at 50.0 μM, NC = No cytotoxic
Excerpt: as §1, §2

[7] = test system: U251 (human glioblastoma); assay: Sulforhodamine B (SRB) cytotoxicity assay, U251; assay type: cell-based; conditions: for inhibition at 1 µM / inhibition at 50 µM: Homo sapiens, U-251, read-out: Antiproliferative activity (%), U251; for inhibition at 1 µM / Antiproliferative activity (%), U251: primary screening at 1.0 μM; for inhibition at 1 µM / Antiproliferative activity (%), U251 / inhibition at 50 µM: mean n = 2; for SI (selectivity index), U251: quotient of IC50 of COS-7 / IC50 of U251; for inhibition at 50 µM: primary screening at 50.0 μM, NC = No cytotoxic
Excerpt: as §1, with “CO2.” for “CO2. The viability of the cells used in the experiments exceeded 95%, as determined with trypan blue.”
as §2

TPA-induced ear edema = TPA-induced ear edema test in mice; assay type: in vivo; conditions: mice CD-1, 1.0 μmol ear^-1 topical, 4 h after TPA, mean ± SEM; for Inhibition of Edema (%): NA = Non-active
Description: Male CD-1 mice weighing 25–30 g were maintained under standard laboratory conditions in the animal house (temperature 24 ± 2 °C) in a 12/12 h light/dark cycle, fed a laboratory diet and water ad libitum, following the Mexican official norm NOM-062-Z00-1999.
The TPA-induced ear edema assay in mice was performed as reported in reference. A solution of TPA (2.5 μg) in ethanol (10 μL) was applied topically to both faces (5 μL each ear) of the right ear of the mice, 10 min after solutions of the test substances in their respective solvents were applied (10 μL each face). The left ear received ethanol (10 μL) first, followed by 20 μL of the respective solvent. The mice were killed with CO2 four hours later. A 7-mm diameter plug was removed from each ear. The swelling was assessed as the difference in weight between the left and the right ear. Control animals received the correspondent solvent in each case. Edema inhibition (EI %) was calculated by the equation EI % = 100 − (B × 100/A), where A is the edema induced by TPA alone and B is the edema induced by TPA plus the sample. Indomethacin and celecoxib were used as reference compounds.

[8] = test system: HCT-15 (human colon cancer); assay: Sulforhodamine B (SRB) cytotoxicity assay, HCT-15; assay type: cell-based; conditions: for inhibition at 1 µM: primary screening at 1.0 μM, mean n = 2, read-out: Antiproliferative activity (%), HCT-15; for inhibition at 50 µM: primary screening at 50.0 μM, mean n = 2, NC = No cytotoxic, read-out: Antiproliferative activity (%), HCT-15
Excerpt: as §1, §2

[9] = test system: healthy gingival human fibroblasts (FGH); assay: Sulforhodamine B (SRB) cytotoxicity assay, FGH primary culture; assay type: cell-based; conditions: primary screening at 50.0 μM; mean n = 2; NC = No cytotoxic
Excerpt: as §1, with “They were maintained at 37 °C in a humidified atmosphere with 5% CO2.” left out
(§3) Cytotoxicity after treatment of the tumors cells and normal cells with the test compounds were determined using the protein-binding dye sulforhodamine B (SRB) in a microculture assay to measure cell growth. […] The plates were placed on a shaker for 10 min, and the absorption was determined at 515 nm using an ELISA plate reader (Bio-Tex Instruments).

[10] = test system: six human cancer cell lines (U251, PC-3, K562, HCT-15, MCF-7, SKLU-1) and FGH; assay: SRB primary screening, whole panel (result in words); assay type: cell-based; conditions: primary screening at 50 μM; cancer cell lines other than K562 and MCF-7
Description: The same biological activity was also recently described for icetexane-derivatives isolated from Premna and Amentotaxus species. […] These facts prompted us to assay diterpenoids 3, 4, 6–8 and 10 for antiproliferative activity using six human cancer cell lines (U251, PC-3, K562, HCT-15, MCF-7, and SKLU-1), and a primary culture of healthy gingival human fibroblasts (FGH) at 1.0 or 50.0 μM (when cytotoxicity at 50.0 μM results were too high). […] Overall, the antiproliferative activity determined for 7 was lower than that observed for 6.
as §1, §3

[11] = primary screening at 1.0 μM, mean n = 2, NC = No cytotoxic
[12] = Homo sapiens, MCF7, primary screening at 50.0 μM, mean n = 2, NC = No cytotoxic, read-out: Antiproliferative activity (%), MCF-7
[13] = primary screening at 50.0 μM, mean n = 2, NC = No cytotoxic

19-deoxyisoicetexone
IC50 (HeLa cells): 9360 nM

CC(=O)OC1CC2C3(CCCC2(C)C(=O)O3)CC2=C1C(=O)C(C(C)C)=C(O)C2=O (stereo not drawn) [Compound 3, 7α-Acetoxy-6,7-dihydroicetexone]
Antiproliferative activity (%), MCF-7 [1, 11]: non-toxic | inhibition at 1 µM [2]: 48.6% | IC50 [3]: 1620 ± 100 nM | DPPH inhibitory effect (%) [4]: 6.1% | inhibition at 1 µM [5]: 34.2% | IC50 ([6]; Homo sapiens, SK-LU-1, 48 h): 460 ± 50 nM | inhibition at 1 µM ([6]; Homo sapiens): 64.5% | IC50 [6]: 820 ± 60 nM | Antiproliferative activity (%), SKLU-1 [6]: moderately active | SI (selectivity index), SKLU-1 [6]: 2.0 | inhibition at 1 µM [7]: 65.4% | Antiproliferative activity (%), U251 [7]: moderately active | SI (selectivity index), U251 [7]: 1.2 | Edema (TPA-induced ear edema): 9.87 ± 0.44 mg | Inhibition of Edema (%) (TPA-induced ear edema): 37.4 ± 2.8% and 37.42 ± 2.77 % | melting point: 110 to 115 °C | inhibition at 1 µM [8]: 33.4%

CC(C)C1=C(O)C(=O)C2=CC3=CCCC4(C)C(=O)OC(C=C2C1=O)C34 (stereo not shown) [Compound 6, Anastomosine]
inhibition at 1 µM ([1]; Homo sapiens, MCF7, primary screening at 1.0 μM, mean n = 2, NC = No cytotoxic, read-out: Antiproliferative activity (%), MCF-7): 51.3% | Antiproliferative activity (%), MCF-7 [1, 11]: moderately toxic | inhibition at 1 µM [2]: 76.4% | IC50 [3]: 610 ± 7 nM | DPPH inhibitory effect (%) [4]: 8.2% | inhibition at 1 µM [5]: 82.3% | IC50 ([6]; Homo sapiens, SK-LU-1, 48 h): 820 ± 60 nM | inhibition at 1 µM ([6]; Homo sapiens): 100% | IC50 [6]: 460 ± 50 nM | Antiproliferative activity (%), SKLU-1 [6]: very toxic | SI (selectivity index), SKLU-1 [6]: 1.3 | inhibition at 1 µM [7]: 98.4% | Antiproliferative activity (%), U251 [7]: very toxic | SI (selectivity index), U251 [7]: 2.3 | Edema (TPA-induced ear edema): 15.97 ± 0.61 mg | Inhibition of Edema (%) (TPA-induced ear edema): non-active | melting point: 220 to 224 °C | inhibition at 1 µM [8]: 85.6%

CC(C)C1=C(O)C(=O)C2=C(CC3OC(=O)C4(C)CCC=C(C2)C34)C1=O (stereo not shown) [Compound 7, 7,20-Dihydroanastomosine]
Antiproliferative activity (%), FGH [9]: non-toxic | IC50 ([1]; Homo sapiens, MCF7): 33200 ± 1200 nM | inhibition at 50 µM [1, 12]: 62.6% | Antiproliferative activity (%), MCF-7 [1, 13]: moderate toxicity | IC50 [2]: 31200 ± 1100 nM | inhibition at 50 µM [2]: 63.2% | Antiproliferative activity (%), K562 [2]: moderate toxicity | DPPH inhibitory effect (%) [4]: 6.6% | inhibition at 50 µM [5]: 17.8% | inhibition at 50 µM ([6]; Homo sapiens): 46.5% | inhibition at 50 µM [7]: 10.1% | Edema (TPA-induced ear edema): 15.50 ± 0.76 mg | Inhibition of Edema (%) (TPA-induced ear edema): non-active | melting point: 223 to 227 °C | inhibition at 50 µM [8]: 26.8%

CC(C)C1=C(O)C(=O)C2=C(C=C[C@@H]3[C@]4(CCC[C@]3(C)C(=O)O4)C2)C1=O [Compound 8, icetexone]
Antiproliferative activity (%), FGH [9]: lacked of toxicity | IC50 ([1]; Homo sapiens, MCF7): 28700 ± 1600 nM | inhibition at 50 µM [1, 12]: 71.6% | Antiproliferative activity (%), MCF-7 [1, 13]: significant antiproliferative activity | IC50 [2]: 17000 ± 1400 nM | inhibition at 50 µM [2]: 83.1% | Antiproliferative activity (%), K562 [2]: significant antiproliferative activity | Activity against all other tested cancer cell lines (in words) [10]: moderately active | DPPH inhibitory effect (%) [4]: 3.7% | inhibition at 50 µM [5]: 39.6% | inhibition at 50 µM ([6]; Homo sapiens): 52.9% | inhibition at 50 µM [7]: 35.8% | inhibition at 50 µM [8]: 29%
